Test: in vivo
Parameters: species or system Sprague Dawley rats
Details: male, Sprague Dawley, rat, po, 2.4 mg/kg
Method: 42 Male Sprague Dawley rats (weight, 220-280 g) were maintained on a 12-hour light/dark cycle with free access to water and lab chow for 10-14 hours prior to the experiment. Rats were randomly divided into 7 groups (n=6/group) and groups 2-7 received 0 mg/kg, 6.0 mg/kg, and 12.0 mg/kg, 24.0 mg/kg, 48.0 mg/kg and 60.0 mg/kg of Schisandrin A in 1% CMC-Na (300-800 cps) via oral administration, respectively. After 5 minutes, all the groups received 2.4 mg/kg of triptolide in a solution of 2% DMSO-98% Sterile Water via oral administration.
After triptolide treatment, blood samples were collected from individual rat at 5 min, 10 min, 15 min, 20 min, 30 min, 45 min, 1 h, 2 h, 4 h, 8 h, and 24 h, respectively. Plasma was separated by centrifugation at 8000 rpm for 6 minutes at 4° C. and kept at −80° C. until analysis. Plasma homogenate was injected into LC-MS/MS for analysis.

AUC(0-t) (AUC0→t of triptolide): 31.5 ± 25.4 ng·h/mL
AUC(0-inf) (AUC0→∞ of triptolide): 31.5 ± 25.4 ng·h/mL
Cmax (Cmax of triptolide): 56.4 ± 25.1 ng/mL
MRT last (MRT0→t of triptolide): 25.8 ± 9.6 min
MRT inf (MRT0→∞ of triptolide): 39.6 ± 21 min
half-life (T1/2 of triptolide): 25.2 ± 13.8 min
Tmax (Tmax of triptolide): 9.96 ± 5.4 min
SMILES: CC(C)[C@]12O[C@H]1[C@@H]1O[C@]13[C@]1(O[C@H]1C[C@H]1C4=C(CC[C@@]13C)C(=O)OC4)[C@@H]2O [triptolide]
